Data: US20070134814A1, “Methods and compositions for the detection of calcifying nano-particles, identification and quantification of associated proteins thereon, and correlation to disease” (priority 2005, published 2007)

Tested on: freshly collected human blood
Experiment: Whole blood clotting slide test
Conditions: 10 μl solution added to plain glass slide before blood
Description: The method allows for measuring changes in the clotting time induced by contact with foreign surfaces, i.e. plain glass or coated glass, and for studying the effects of drugs on the clotting induced by foreign surface.
Venous blood was collected with venipuncture from 19 random volunteers participating in CNP epidemiological study (Ethical Committee Approval, Kuopio University). Volunteers signed an informed consent. Blood was collected with venipuncture in siliconized glass serum tubes, EDTA plasma tubes or citrate plasma tubes (Terumo), and was tested immediately after collection for whole blood clotting time on different test platforms.
200 μl of freshly drawn blood was added to pre-coated or plain glass slides which were put on a tilting shaker 15 tilts/minute at room temperature until formation of a solid clot was observed as “frozen droplet”. Experiments were carried out usually in triplicate to determine reproducibility of tests. CV % for the triplicate tests were less than 6.81% (CNP-coated slide, n=13), 8.79% (apatite-coated slide, n=15) and 10.37% (non-treated control slide, n=15). Clotting time results were analyzed by Bonferroni (Dunn) t Test (Table 1).
Therefore, to study the effects of apatite on clotting, a whole blood clotting slide test was developed. […]

SMILES: CC(O)(P(=O)(O)O)P(=O)(O)O [etidronate]
- effect on clotting time: did not affect the clotting time

SMILES: O=C([O-])CN(CCN(CC(=O)[O-])CC(=O)[O-])CC(=O)[O-].[Ca+2].[Na+].[Na+] [Calcium EDTA]
- effect on clotting time: did not affect the clotting time
